One assay has as its target T1, PI3Kalpha (Homo sapiens, UniProt P42336).
T1 construct: His (N); made in house; host or cells: SF9 insect cells (baculovirus co-infection)
In words: Inhibition of PI3Kalpha-induced PIP-2 phosphorylation (filter-binding assay, 33P-ATP). It counts as biochemical. The note with it: PI3 Kinase alpha (p85alpha/His-p110alpha), 1 μM ATP; read-out: IC50 PI3Kα. As to the method:
Biological Methods Inhibition of PI3Kalpha-Induced PIP-2 Phosphorylation
See also J. A. Engelman, Nature Reviews Cancer, 2009, 9, 550-562; A. Carnero, Expert Opin. Investig. Drugs, 2009, 18, 1265-1277 and P. Liu et al., Nature Reviews Drug Discovery, 2009, 8, 627-64.
Method Type: Filter-Binding-Assay
Aliquoted in desired amounts and stored at −80° C. […] Assay Procedure
The substrate-containing lipid vesicles are dissolved to a concentration of 0.637 mg lipid blend/ml assay buffer (with BSA, freshly added) in 50 ml Falcon ->keep on ice, followed by ultrasonication (pulse of 15 sec followed by a pause of 10 sec, 4×). Compounds are serially diluted in assay buffer+6% DMSO and 10 μl of each dilution is added per well of a 96-well plate (compounds are tested in duplicates) and mixed with 30 μl of the lipid vesicles containing PDGFR-Peptide (0.5 μM final) and PI3K alpha (25 ng/well final). The mixture is then incubated for 20 minutes at room temperature.
Subsequently, 20 μl of assay buffer containing 3 μM cold ATP and 0.5 μCi/20 μl 33P-ATP are added. The plates are then incubated at room temperature for 120 minutes (shaking with 300 rpm).
The reaction mix is transferred onto filter plates using “filtermate harvester” from Packard: filter plates are rinsed with PBS, then the reaction mix is filtered onto the filter plate, washed 5 times with PBS and are allowed to dry for 30-60 minutes at 50° C. The plate bottom is sealed with Perkin Elmer white adhesive foil and 25 μl/well Microscint0 are added, the top is covered with transparent adhesive foil and the plate is measured with Wallac Trilux 1450 Microbeta Counter.
As positive control serve wells containing vehicle controls (1% DMSO in assay buffer), showing non-inhibited kinase activity (high values). Wells containing assay buffer instead of enzyme can serve as control for background activity (low values).
Calculate IC50 values using the Smiley program (based on GrapPad Prism)

The next assay deals with H460 cells. In words: alamarBlue H460 cell assay (antiproliferative/cytotoxicity). Conditions: NCI-H460; H460 human lung carcinoma cells. It counts as cell-based. The source says: (§1) The H460, MB453, U87, MCF7 and BT474 alamarBlue cell assays provide EC50 values indicative of the antiproliferative or cytotoxic effects of the compounds to respectively the H460 (human non small cell line cancer), MB-453 (breast cancer cell line), U87 (glioblastoma cell line), MCF7 (breast cancer cell line) and BT474 (breast cancer cell line). As known in the field, antiproliferative or cytotoxic effect against this cell lines would be expected to be indicative of activity in treating lung, breast and brain cancers. See R. Marone R et al. Biochim. Biophys. Acta. 2008 January; 1784(1):159-85. S. Yaguchi et al., J. Natl. Cancer Inst. 2006 Apr. 19; 98(8):545-56.
(§2) Method Type: Antiproliferative/Cytotoxicity
(§3) alamarBlue® is designed to provide a rapid and sensitive measure of cell proliferation and cytotoxicity in various human and animal cell lines. The assay is based on the reduction of alamarBlue in the reducing environment of living (metabolically active) cells. In the presence of added cytotoxic or antiproliferative compounds, the innate metabolic activity ceases.
(§4) AlamarBlue is soluble and stable in culture medium. Measurements are made fluorometrically by exciting at 530-560 nm and measuring emission at 590 nm. In reporting percent alamarBlue reduction by monitoring fluorescence, data are expressed as fluorescence emission intensity units as a function of time of incubation.
(§5) 3. Equipment • 96-well plates, flat bottom (Falcon, Cat. No.: 353072) • 96-well plates, U-shaped (Costar, Cat. No.: 3799) • CO2-Incubator • Microplate Reader, Spectramax Plus, Molecular Devices 4. Typical Procedure • Day 0: Seed 3000 BT-474 cells (IMDM/5% FCS, 1% NEAA, 1% Sodiumpyruvat) in 150 μl medium into a 96-well plate, flat bottom (include mediumblank). Incubate plates at 37° C. in a CO2 incubator overnight. • Day 1: Dilute compounds to a concentration 40 μM ->1:3 in medium, 10 dilution steps, in 96-well plates. • Add 50 μl per well of each dilution (total volume per well 200 μl; final conc. of cpds: 10 μM ->1:3). If required, test further dilutions. • All concentrations are tested in duplicates. • Controls: Cells w/o cpd. (+50 μl medium/DMSO). • Cells are incubated with compounds for 5-6 days. • Day 6 or 7: Add 25 μl of alamarBlue solution to each well and incubate for 8 hours at 37° C. Measure fluorescence by exciting at 530-560 nm and measuring emission at 590 nm 5. Evaluation • Subtract average value for medium blank from sample readings • Calculate EC50 using GraphPad Prism (Fifty)

The subject of the next assay is MCF7 cells. In words: alamarBlue MCF7 cell assay (antiproliferative/cytotoxicity). It counts as cell-based. Conditions: MCF7 human breast cancer cell line.
Excerpt: as §1, §2, §3, §4, §5
Background: Alamar Blue is a resazurin reagent that responds to reducing activity.

The next assay has as its system BT474 cells. Description: alamarBlue BT474 cell assay (antiproliferative/cytotoxicity). Type of assay: cell-based. Conditions: BT-474 human breast cancer cell line, 5-6 days incubation.
Excerpt: as §1, §2, §3, §4, §5

The next assay relates to MB453 cells. Description: alamarBlue MB453 cell assay (antiproliferative/cytotoxicity). It counts as cell-based. The note with it: Homo sapiens; MDA MB 453 breast cancer cell line.
Excerpt: as §1, §2, §3, §4, §5

A further assay concerns U87 cells. In words: alamarBlue U87 cell assay (antiproliferative/cytotoxicity). Type of assay: cell-based. Conditions: U-87MG human glioblastoma cells.
Excerpt: as §1, §2, §3, §4, §5

T1 sequence (P27986 whole entry): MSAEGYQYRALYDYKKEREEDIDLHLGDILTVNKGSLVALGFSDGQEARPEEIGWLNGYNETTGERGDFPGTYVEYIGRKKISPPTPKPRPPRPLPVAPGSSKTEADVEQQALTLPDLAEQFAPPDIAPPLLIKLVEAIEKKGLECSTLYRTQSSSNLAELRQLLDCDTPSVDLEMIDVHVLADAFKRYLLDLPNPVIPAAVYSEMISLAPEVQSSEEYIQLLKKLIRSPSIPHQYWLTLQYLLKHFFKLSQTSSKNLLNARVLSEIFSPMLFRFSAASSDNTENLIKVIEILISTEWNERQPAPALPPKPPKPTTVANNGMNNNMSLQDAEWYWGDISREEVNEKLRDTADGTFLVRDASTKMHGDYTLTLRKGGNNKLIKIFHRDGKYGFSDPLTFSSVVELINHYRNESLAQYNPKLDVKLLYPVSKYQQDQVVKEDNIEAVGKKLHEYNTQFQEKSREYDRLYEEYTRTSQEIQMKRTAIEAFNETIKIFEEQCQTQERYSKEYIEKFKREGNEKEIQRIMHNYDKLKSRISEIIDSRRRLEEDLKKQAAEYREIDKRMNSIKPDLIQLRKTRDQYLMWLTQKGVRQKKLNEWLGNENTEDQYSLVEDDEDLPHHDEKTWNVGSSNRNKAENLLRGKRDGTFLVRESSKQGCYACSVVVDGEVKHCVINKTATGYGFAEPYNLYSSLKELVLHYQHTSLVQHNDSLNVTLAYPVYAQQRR
T1 sequence (P42336 whole entry): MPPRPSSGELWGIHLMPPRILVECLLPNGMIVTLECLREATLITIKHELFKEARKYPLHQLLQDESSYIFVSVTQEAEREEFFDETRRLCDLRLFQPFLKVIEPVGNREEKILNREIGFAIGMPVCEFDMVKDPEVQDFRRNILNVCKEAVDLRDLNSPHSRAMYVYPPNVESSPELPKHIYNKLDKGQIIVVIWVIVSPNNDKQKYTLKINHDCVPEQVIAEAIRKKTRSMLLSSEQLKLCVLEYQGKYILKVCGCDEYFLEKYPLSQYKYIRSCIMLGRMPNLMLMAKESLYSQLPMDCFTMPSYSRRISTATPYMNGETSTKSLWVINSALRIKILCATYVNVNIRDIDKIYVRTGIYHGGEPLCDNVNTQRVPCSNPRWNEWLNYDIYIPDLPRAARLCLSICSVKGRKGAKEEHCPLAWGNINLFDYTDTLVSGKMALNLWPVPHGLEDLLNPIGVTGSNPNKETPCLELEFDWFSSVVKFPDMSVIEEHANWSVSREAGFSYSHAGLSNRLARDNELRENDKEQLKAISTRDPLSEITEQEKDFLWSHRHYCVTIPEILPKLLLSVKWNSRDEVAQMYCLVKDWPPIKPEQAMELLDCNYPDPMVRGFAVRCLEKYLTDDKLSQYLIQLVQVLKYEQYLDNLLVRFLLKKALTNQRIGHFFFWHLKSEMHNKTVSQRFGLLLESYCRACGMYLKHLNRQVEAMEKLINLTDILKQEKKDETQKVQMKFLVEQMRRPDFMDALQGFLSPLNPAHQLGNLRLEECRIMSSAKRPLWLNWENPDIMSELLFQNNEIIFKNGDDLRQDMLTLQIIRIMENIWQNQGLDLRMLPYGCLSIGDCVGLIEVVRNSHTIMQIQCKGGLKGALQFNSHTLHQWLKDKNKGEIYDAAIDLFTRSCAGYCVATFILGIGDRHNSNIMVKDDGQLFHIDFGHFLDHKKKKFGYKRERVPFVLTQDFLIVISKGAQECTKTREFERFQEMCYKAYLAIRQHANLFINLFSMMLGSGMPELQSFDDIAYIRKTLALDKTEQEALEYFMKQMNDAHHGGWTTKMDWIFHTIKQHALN

As to `CCc1nc(N)nc(-c2ccc(C)nc2)c1C#Cc1cnc(C)c(NS(C)(=O)=O)c1` [Example 14, N-{5-[2-Amino-4-ethyl-6-(6-methyl-pyridin-3-yl)-pyrimidin-5-ylethynyl]-2-methyl-pyridin-3-yl}-methanesulfonamide], the IC50 (in general, the concentration that gives 50% inhibition) at PI3Kalpha is 1 nM. Further, the EC50 (as a rule, the concentration needed to bring the measured effect to its halfway point) in the assay on H460 cells is 305 nM; in the assay with MCF7 cells it was 16 nM; in the assay with BT474 cells it was 89 nM.
On to `CCc1nc(N)nc(-c2ccnc(C)c2)c1C#Cc1cnc(C)c(NS(C)(=O)=O)c1` [Example 15, N-{5-[2-Amino-4-ethyl-6-(2-methyl-pyridin-4-yl)-pyrimidin-5-ylethynyl]-2-methyl-pyridin-3-yl}-methanesulfonamide], for which the IC50 on PI3Kalpha was determined as 0.95 nM. In addition, the values for the half-maximal effective concentration (EC50) with H460 cells, in the assay with MCF7 cells and with BT474 cells were 294 nM, 40 nM and 107 nM, respectively.
The corresponding values for `COc1ncc(C#Cc2c(C)nc(N)nc2-c2ccnc(C)c2)cc1NS(C)(=O)=O` [Example 21, N-{5-[2-Amino-4-methyl-6-(2-methyl-pyridin-4-yl)-pyrimidin-5-ylethynyl]-2-methoxy-pyridin-3-yl}-methanesulfonamide] are 2 nM, 87 nM, 22 nM and 295 nM.
The corresponding values for `COc1ncc(C#Cc2c(C)nc(N)nc2-c2ccnc(C)c2)cc1NS(=O)(=O)c1ccc(F)cc1F` [Example 22, N-{5-[2-Amino-4-methyl-6-(2-methyl-pyridin-4-yl)-pyrimidin-5-ylethynyl]-2-methoxy-pyridin-3-yl}-2,4-difluoro-benzenesulfonamide] are 0.36 nM, 13 nM, 3 nM and 29 nM.
The corresponding values for `CNC(=O)c1ccc(-c2nc(N)nc(C)c2C#Cc2cnc(C)c(NS(C)(=O)=O)c2)cc1Cl` [Example 25, 4-[2-Amino-5-(5-methanesulfonylamino-6-methyl-pyridin-3-ylethynyl)-6-methyl-pyrimidin-4-yl]-2-chloro-N-methyl-benzamide] are 3 nM, 376 nM, 122 nM and 231 nM.
For the compound `CNC(=O)c1ccc(-c2nc(N)nc(C)c2C#Cc2cnc(Cl)c(NS(C)(=O)=O)c2)cc1Cl` [Example 26, 4-[2-Amino-5-(6-chloro-5-methanesulfonylamino-pyridin-3-ylethynyl)-6-methyl-pyrimidin-4-yl]-2-chloro-N-methyl-benzamide], at PI3Kalpha, the half-maximal inhibitory concentration (IC50) stood at 0.83 nM. Further, the EC50 with H460 cells was 151 nM; in the assay on MCF7 cells, 17 nM; with BT474 cells it was 53 nM.
For `CCc1ncnc(-c2cccc(C#N)c2)c1C#Cc1cnc(C)c(NS(=O)(=O)c2ccc(F)cc2F)c1` [Example 29, N-{5-[4-(3-Cyano-phenyl)-6-ethyl-pyrimidin-5-ylethynyl]-2-methyl-pyridin-3-yl}-2,4-difluoro-benzenesulfonamide], at PI3Kalpha, the IC50 is 0.92 nM. Further, the EC50 in the assay with H460 cells was found to be 255 nM; with MB453 cells, 258 nM; with MCF7 cells, 83 nM; in the assay with BT474 cells, 282 nM.
The corresponding values for `CCc1ncnc(-c2cccc(CN(C)C)c2)c1C#Cc1cnc(C)c(NS(=O)(=O)c2ccc(F)cc2F)c1` [Example 30, N-{5-[4-(3-Dimethylaminomethyl-phenyl)-6-ethyl-pyrimidin-5-ylethynyl]-2-methyl-pyridin-3-yl}-2,4-difluoro-benzenesulfonamide] are 2 nM, 347 nM, 188 nM, 77 nM and 108 nM.
`CCc1nc(N)nc(-c2cccc(C#N)c2)c1C#Cc1cnc(C)c(NS(=O)(=O)c2ccc(F)cc2F)c1` [Example 34, N-{5-[2-Amino-4-(3-cyano-phenyl)-6-ethyl-pyrimidin-5-ylethynyl]-2-methyl-pyridin-3-yl}-2,4-difluoro-benzenesulfonamide]: the IC50 on PI3Kalpha was 0.9 nM. The EC50 was found to be 147 nM with H460 cells, 174 nM in the assay on MB453 cells, 17 nM in the assay with MCF7 cells and 107 nM in the assay with BT474 cells.
Regarding `CCc1ncnc(-c2ccc(C(=O)N3CCN(C)CC3)c(F)c2)c1C#Cc1cnc(C)c(NS(C)(=O)=O)c1` [Example 81, N-(5-{4-Ethyl-6-[3-fluoro-4-(4-methyl-piperazine-1-carbonyl)-phenyl]-pyrimidin-5-ylethynyl}-2-methyl-pyridin-3-yl)-methanesulfonamide], the IC50 at PI3Kalpha was 3 nM. Besides, the EC50 in the assay with H460 cells was 2350 nM; in the assay with MCF7 cells it was 301 nM; in the assay with BT474 cells, 477 nM.
The corresponding values for `CCc1nc(N)nc(-c2ccc(C(=O)N3CCN(C)CC3)c(F)c2)c1C#Cc1cnc(C)c(NS(C)(=O)=O)c1` [Example 82, N-(5-{2-Amino-4-ethyl-6-[3-fluoro-4-(4-methyl-piperazine-1-carbonyl)-phenyl]-pyrimidin-5-ylethynyl}-2-methyl-pyridin-3-yl)-methanesulfonamide] are 1 nM, 2270 nM, 194 nM and 511 nM.
On to `CCc1ncnc(-c2ccnc(C)c2)c1C#Cc1cnc(C)c(NS(=O)(=O)c2ccccc2OC)c1` [Example 96, N-{5-[4-Ethyl-6-(2-methyl-pyridin-4-yl)-pyrimidin-5-ylethynyl]-2-methyl-pyridin-3-yl}-2-methoxy-benzenesulfonamide], for which the half-inhibitory concentration (IC50) on PI3Kalpha worked out at 0.71 nM. The EC50 in the assay on H460 cells stood at 93 nM; with MB453 cells, 102 nM; in the assay with U87 cells, 225 nM; in the assay on BT474 cells, 84 nM.
The corresponding values for `CCc1ncnc(-c2ccnc(C)c2)c1C#Cc1cnc(C)c(NS(=O)(=O)c2ccc(OC)cc2OC)c1` [Example 98, N-{5-[4-Ethyl-6-(2-methyl-pyridin-4-yl)-pyrimidin-5-ylethynyl]-2-methyl-pyridin-3-yl}-2,4-dimethoxy-benzenesulfonamide] are 2 nM, 288 nM, 437 nM, 559 nM and 225 nM.
The corresponding values for `CCc1ncnc(-c2ccnc(C)c2)c1C#Cc1cnc(C)c(NS(=O)(=O)c2ccc(C(C)(C)C)cc2)c1` [Example 99, 4-tert-Butyl-N-{5-[4-ethyl-6-(2-methyl-pyridin-4-yl)-pyrimidin-5-ylethynyl]-2-methyl-pyridin-3-yl}-benzenesulfonamide] are 11 nM, 2490 nM, 2930 nM, 2420 nM and 4970 nM.

Values taken from patent US8466162B2, “5-alkynyl-pyridines” (Boehringer Ingelheim International GmbH, priority 2011, dated 2013).
